In patent publication US7368432B2 (Xenome, Ltd., priority 1999, dated 2008):

Experiments:
CF-1 mice = conditions: in vivo
mice [1] = conditions: mouse, in vivo
[2] = in vivo
mice [3] = conditions: mouse, in vivo; remark: listed apart in the source

Sequence: NGVCCGYKLCHOC [Mar1]
- analgesic activity in mouse hot plate assay (CF-1 mice): potent analgesics
- increase in the latency to first hind paw lick (CF-1 mice; mouse): dose-dependent
- latency to first hind paw lick (CF-1 mice; mouse): 39.5 ± 13.5 s
- latency to lick the hind paw (CF-1 mice; mouse): significantly increased
- symptoms after high-dose i.c.v. administration (mice [1]): akinesia and seizures
- symptoms after i.c.v. injection of HPLC fractions (mice [1]): hypokinetic “sluggish” symptoms
- activity in formalin test (licking time) [2]: active
- activity in tail-flick model (mice [3]): active
- effective dose range (mice [3]): low nanomole range
- response latency in the tail flick model (mice [3]): reduced the response latency
